Data from patent US7244738B2, “Arylamine-substituted quinazolinone compounds useful as alpha 1A/B adrenergic receptor antagonists” (Roche Palo Alto LLC, priority 2003, dated 2007).

| SMILES | melting point [°C] |
| --- | --- |
| COc1cc2[nH]c(N(C)Cc3cccc(Oc4ncccn4)c3)nc(=O)c2c(OC)c1OC [Example F-16, 5,6,7-Trimethoxy-2-{methyl-[3-(pyrimidin-2-yloxy)-benzyl]-amino}-1H-quinazolin-4-one] | 191 to 192.9 |
| COc1cc2[nH]c(N(C)Cc3cccc(NS(C)(=O)=O)c3)nc(=O)c2c(C(C)C)c1OC [Example G-2, N-(3-{[(5-Isopropyl-6,7-dimethoxy-4-oxo-1,4-dihydro-quinazolin-2-yl)-methyl-amino]-methyl}-phenyl)-methanesulfonamide] | 215 to 217 |
| COc1cc2[nH]c(N(C)Cc3cccc(NCCO)c3)nc(=O)c2c(OC)c1OC [Example G-16, 2-{[3-(2-Hydroxy-ethylamino)-benzyl]-methyl-amino}-5,6,7-trimethoxy-1H-quinazolin-4-one] | 60.5 to 61.4 |
| COc1cc2[nH]c(N(C)Cc3cccc(NCCCO)c3)nc(=O)c2c(OC)c1OC [Example G-18, 2-{[3-(3-Hydroxy-propylamino)-benzyl]-methyl-amino}-5,6,7-trimethoxy-1H-quinazolin-4-one] | 47 to 48.5 |
| COCCN(C)c1cccc(CN(C)c2nc(=O)c3c(OC)c(OC)c(OC)cc3[nH]2)c1 [Example G-20, 5,6,7-Trimethoxy-2-({3-[(2-methoxy-ethyl)-methyl-amino]-benzyl}-methyl-amino)-1H-quinazolin-4-one] | 179.3 to 181.2 |
| COc1cc2[nH]c(N(C)Cc3cccc(N=CN(C)C)c3)nc(=O)c2c(C)c1OC [Example G-30, N′-(3-{[(6,7-Dimethoxy-5-methyl-4-oxo-1,4-dihydro-quinazolin-2-yl)-methyl-amino]-methyl}-phenyl)-N,N-dimethyl-formamidine] | 185 to 186 |
| COc1cc2[nH]c(N(C)Cc3cccc(N=C(C(C)C)N(C)C)c3)nc(=O)c2c(OC)c1OC [Example G-32, N,N-Dimethyl-N′-(3-{[methyl-(5,6,7-trimethoxy-4-oxo-1,4-dihydro-quinazolin-2-yl)-amino]-methyl}-phenyl)-isobutyramidine] | 148 to 150 |
| CCc1c(OC)c(OC)cc2[nH]c(N(C)Cc3cccc(N=C(C)N(C)C)c3)nc(=O)c12 [Example G-33, N′-(3-{[(5-Ethyl-6,7-dimethoxy-4-oxo-1,4-dihydro-quinazolin-2-yl)-methyl-amino]-methyl}-phenyl)-N,N-dimethyl-acetamidine] | 224.6 to 225.5 |
| COc1cc2[nH]c(N(C)Cc3cccc(N=C4NCCN4)c3)nc(=O)c2c(C)c1OC [Example G-38, 2-{[3-(Imidazolidin-2-ylideneamino)-benzyl]-methyl-amino}-6,7-dimethoxy-5-methyl-1H-quinazolin-4-one] | 141.3 to 144.7 |

The next lines start with the values.

| melting point [°C] | SMILES |
| --- | --- |
| 144.8 to 145.9 | COCCOc1cccc(CN(C)c2nc(=O)c3c(OC)c(OC)c(OC)cc3[nH]2)c1 [Example F-11, 5,6,7-Trimethoxy-2-{[3-(2-methoxy-ethoxy)-benzyl]-methyl-amino}-1H-quinazolin-4-one] |
| 178.9 to 179.9 | COCCNc1cccc(CN(C)c2nc(=O)c3c(OC)c(OC)c(OC)cc3[nH]2)c1 [Example G-19, 5,6,7-Trimethoxy-2-{[3-(2-methoxy-ethylamino)-benzyl]-methyl-amino}-1H-quinazolin-4-one] |
| 155 to 158 | COc1cc2[nH]c(N(C)Cc3cccc(NC(C)=N)c3)nc(=O)c2c(C)c1OC [Example G-26, N-(3-{[(6,7-Dimethoxy-5-methyl-4-oxo-1,4-dihydro-quinazolin-2-yl)-methyl-amino]-methyl}-phenyl)-acetamidine] |
| 145 | COCCC(=Nc1cccc(CN(C)c2nc(=O)c3c(OC)c(OC)c(OC)cc3[nH]2)c1)N(C)C [Example G-36, 3-Methoxy-N,N-dimethyl-N′-(3-{[methyl-(5,6,7-trimethoxy-4-oxo-1,4-dihydro-quinazolin-2-yl)-amino]-methyl}-phenyl)-propionamidine] |
